For data set [1], the system named is U87 MG-luc2 human glioma cells, stably expressing luc2. Description: Luciferase gene downregulation by CPP/siRNA (siLuc2) complexes. The class given is cell-based. The conditions noted are these: for Red (%) (reduction, based on remaining luminescence on U87 cells post-treatment): siRNA against luciferase. On the procedure: (§1) For assessing the siRNA mediated RNAi, CHO-GFP or U87-luc2 cells (5×10^5 cells per well) were seeded on a 24-well plate a day prior to the experiment and grown in serum containing media. On experiment day, prior to adding pre-formed complexes ( 1/10th of the final volume per well), media was replaced with fresh serum containing medium.
(§2) For complex formation, peptide was mixed with luc2 siRNA (sense 5′-[…]-3′ (SEQ ID NO:7), antisense 5′-[…] 3′ (SEQ ID NO:8), Metabion, Germany) or with siRNA against GFP (5′-[…] (SEQ ID NO:9), 3′-[…] (SEQ ID NO:10)) in mQ water (pH 5.3-6.3) using peptide to siRNA molar ratios (MR is the ratio of peptide to siRNA) […] and incubated at RT for 1 h. For siLuc2, the final concentration in media was 25 nM and for siGFP 100 nM. Cells were co-incubated with complexes for 4 h (37° C., 5% CO2), thereafter fresh serum containing media was added and followed by further incubation (20 h for siLuc2 or 44 h for siGFP complexes). Luciferase gene downregulation was measured from cell lysates with Promega luciferase assay system (Promega, Sweden) in combination with GLOMAX 96 microplate luminometer equipped with GLOMAX 1.9.2 software (Promega). GFP was measured after treatment from cell lysates on black 96-well plates by measuring total fluorescence (Symergy MX, BioTek Instruments, USA equipped with Gen5 1.10 software). The results were normalized to the protein content of each sample (DC Protein Assay, BioRad, USA).
Luciferase activity was determined as described in previous paragraph.
For determination of pH dependency on the transfection efficiency, complexes were formed at MR30, incubated and diluted before addition to cells to obtain siRNA final concentration 10 nM in transfection media. HEPES buffer supplemented with 10% FBS was used as transfection media. Complexes were co-incubated with cells for 4 h and then media was replaced with cell growth media. After further 20 h incubation cells were lysed and analyzed as described previously.
The experiment was carried out in serum containing media (10% FBS). CPP/siRNA complexes were formed at different molar ratios with siRNA concentration kept constant (50 nM in transfection media). Luminescence from luciferin-luciferase reaction was measured at 24 hours post-treatment from cell lysate. Results were normalized to protein content and luminescence values from untreated cells (100%).

The subject of data set [2] is CHO stably expressing green fluorescent protein (GFP). As to the kind of experiment: GFP gene downregulation by CPP/siGFP complexes (lysate fluorescence, FACS, confocal). The class given is cell-based. The conditions noted are these: for downregulation of GFP (average, cell lysate fluorescence): siGFP 100 nM. On the procedure:
as §1, §2
For flow cytometry analysis (FACS) analysis CHO-GFP cells were seeded and treated as described previously. After incubation, cells were washed with 1× PBS and detached from plates with trypsin-EDTA (0.25%), and re-suspended in PBS supplemented with FBS (5%) and transferred to transparent U-bottom 96-well plates. FACS was carried out with BD LSR II flow cytometer (BD Biosciences, San Jose, CA, USA) equipped with a 488 nm argon laser. Population of viable cells was determined from scatter plot: forward scattered plot (FSC) vs. side scattered light (SSC) plot. A minimum of 10,000 events from the viable cell population per sample were analyzed using BD FACS Diva software. Results are shown as the population with GFP signal lower than that of 0.1% of untreated cells.
For confocal microscopy 2×10^5 cells per chamber were seeded on NUNC 8-chamber plates. After treatment with complexes (25 ul of pre-formed CPP/siRNA complexes added to cells in 225 ul serum containing media), incubated (48 h) and GFP florescence images of cells were captured using confocal microscope Zeiss LSM 710 and excitation at 488 nm (493-616 filter).

Data set [3] is described as follows: Fluorescent dye (PicoGreen) intercalation and heparin displacement assay of CPP/siRNA complexes. The class given is physicochemical. The conditions noted are these: for stability of complexes to heparin displacement (in words): complexes pre-formed at MR30. On the procedure:
Complexation of siRNA and CPPs was assessed by Quant-iT™ PicoGreen® (PG) (Thermo Fisher Scientific, USA) assay in mQ water. Complexes were prepared as described previously, following addition of diluted PG. For detection, complexes (⅕ of volume), water (3/5) and PG (1/5) working dilution was incubated for 5 minutes and fluorescence was measured by fluorimeter (λex=492 nm, λem=535 nm) (SynergyMx, BioTek). For heparin displacement, instead of water, heparin salt solution at different concentrations were used and complexes incubated at 37° C. for 30 min before addition of PG dilution. Complex formation was also confirmed by gel electrophoresis (details in section 2.11).

Data set [4] has as its target T1, Proteinase K (Parengyodontium album, UniProt P06873).
T1 construct: purchased Thermo Scientific, USA
Description: Stability of CPP/siRNA complexes to degradation by Proteinase K. The conditions noted are these: Proteinase K >14.4 U per well. In kind it is physicochemical. As to the method:
To assess protection of siRNA from enzymatic degradation, after addition of PG dilution and initial measurement to set a starting point, Proteinase K (Thermo Scientific, USA) was added (>14 U/ml, 20 ul of mixture per well containing dilution of 120 ul of enzyme in 1 ml), co-incubated with complexes and fluorescence was measured over a 10 h period.

Data set [5] relates to murine red blood cells. Description: Membrane activity assay on murine red blood cells: hemolysis. In kind it is cell-based, mouse. The conditions noted are these: for hemolytic activity of free peptide (in words): up to 10 uM. On the procedure:
For evaluation of membrane activity of peptides, hemolysis assay was used. For this whole blood was collected from mouse (adult, BALB/c) saphenous vein into a heparinized collection tube. Blood was centrifuged (2300× g, 15 min) to separate cells (red blood cells-RBC) from the plasma. RBCs were washed according to following procedures.
RBCs were washed with 10 ml 0.9% NaCl saline and centrifuged (600× g, 15 min). Supernatant was discarded after each centrifugation. This was repeated at least 3 times. RBCs were re-suspended in 5 ml saline and distributed equally to tubes and centrifuged (600× g, 15 min). The cells were washed and re-suspended in 2× PBS with the required pH (pH 5.5-7.5). The hemoglobin content in stocks was measured after lysis of cells with equal volume of 0.1% Triton X100 supplemented with 5% glucose. The cell suspension was diluted accordingly for each pH value to obtain similar concentration range of hemoglobin in stocks. To each 100 ul of peptide solution 100 ul of 10% glucose was added, mixed, and equal volume (200 ul) of RBC in 2× PBS were added and gently mixed. Peptide solution with RBCs was incubated at 37° C. for 1 h with gentle mixing (max 300 rpm) after which samples were centrifuged to pellet intact cells from the solution. Hemoglobin from lysed cells was determined from each sample from the supernatant on transparent 96-well plates by measuring the absorbance at 540 nm.
Controls were incubated in similar manner as samples. As a non-hemolysis control mQ supplemented with glucose (0%) was used and for hemolytic control 0.1% TritonX-100 with glucose (100%) was used (cells are suspended in 2× PBS before addition). Final percent was calculated as follows: […]
For hemolytic concentration determination 2× PBS at pH 7.5 was used for incubation and 1× PBS at pH 7.5 was used for washing. Everything else is as described in previous paragraph.

The test system of data set [6] is CHO cells. Description: pDNA (p-CMV-Luc2) transfection with CPP/pDNA complexes. The class given is cell-based. The conditions noted are these: serum containing medium, CR1 to CR4, 24 h. As to the method: For the pDNA transfection experiment, CPP/pDNA nanoparticles were prepared by mixing […] of plasmid (p-CMV-Luc2) with the peptide in MQ water. Charge ratios from 1 to 4 (CR, equivalent to the nitrogen-to-phosphate ratio) were used. 50,000 CHO cells were seeded 24 hr before the experiment into 24-well plates, treated with complexes for 4 h in serum-containing medium, incubated for additional 20 hr, lysed and luminescence was measured.

Data set [7] deals with organs of BALB/c mice. As to the kind of experiment: Gene delivery in vivo (CPP/pDNA, i.v., organ luminescence). Further details: species or system mouse. The conditions noted are these: CR2 or CR4, 50 μg or 20 μg pDNA, 24 h. As to the method:
For in vivo pDNA delivery studies BALB/c mice were used. Each animal received a single […] intravenous (i.v.) injection of the complexes at CR2 or CR4. Two doses of pDNA […] were used. After 24 hr, the mice were sacrificed using cervical dislocation, and whole organs were harvested and snap-frozen on dry ice. The organs were homogenized, and luminescence was measured.

“Also recorded” adds a separate entry of the source. Where a SMILES comes first, the peptide text is derived from it. Bridges are numbered along the chain shown (N, C = ends). Roman numbers before positions name the chains, in order. [ ]: non-standard residue; d: D form. The star is where a group is joined. Arachidoyl = CCCCCCCCCCCCCCCCCCCC(=O)*; Orn = NCCC[C@H](N)C(=O)O

T1 sequence (P06873 106-384): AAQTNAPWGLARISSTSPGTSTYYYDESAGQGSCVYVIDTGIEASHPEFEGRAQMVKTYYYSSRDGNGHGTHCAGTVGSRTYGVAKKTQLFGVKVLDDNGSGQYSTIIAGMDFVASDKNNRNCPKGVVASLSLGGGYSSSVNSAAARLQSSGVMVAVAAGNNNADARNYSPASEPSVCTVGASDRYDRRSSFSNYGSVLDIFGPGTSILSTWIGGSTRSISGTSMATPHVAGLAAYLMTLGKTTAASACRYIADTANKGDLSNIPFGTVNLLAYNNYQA

As for `CCCCCCCCCCCCCCCCCCCC(=O)N[C@@H](Cc1c[nH]cn1)C(=O)N[C@@H](Cc1c[nH]cn1)C(=O)N[C@@H](Cc1c[nH]cn1)C(=O)N[C@@H](Cc1c[nH]cn1)C(=O)N[C@@H](Cc1c[nH]cn1)C(=O)N[C@@H](Cc1c[nH]cn1)C(=O)NCC(=O)NCCC[C@H](N)C(=O)N[C@H](C(=O)N[C@@H](CC(C)C)C(=O)N[C@@H](CC(C)C)C(=O)N[C@@H](CCCCN)C(=O)N[C@@H](C)C(=O)N[C@@H](CC(C)C)C(=O)N[C@@H](CCCCN)C(=O)N[C@@H](C)C(=O)N[C@@H](CC(C)C)C(=O)N[C@@H](C)C(=O)N[C@@H](CCCCN)C(=O)N[C@@H](C)C(=O)N[C@H](C(=O)N[C@@H](CC(C)C)C(N)=O)[C@@H](C)CC)[C@@H](C)CC` [NF705] (I: H-[Orn]ILLKALKALAKAIL-NH2 / II: Arachidoyl-HHHHHHG; amide I:1-II:C), the “Red (%) (reduction, based on remaining luminescence on U87 cells post-treatment)” value in data set [1] (CPP/siRNA complexes) was determined as 52%. For the same compound, the “downregulation of GFP (average, cell lysate fluorescence)” value in data set [2] is “lower efficiency than H6-C20”. For the same compound, the “accessibility of siRNA in complexes (dye intercalation)” value in data set [3] (MR30, no heparin) was “low accessibility of siRNA”. In addition, the “stability of complexes to heparin displacement (in words)” value in data set [3] was “significantly higher stability to heparin displacement than NF70 peptide and even NF72 peptide”. Further, in data set [4], the “stability of complexes to proteinase K (in words)” value is recorded as “formed the most stable complexes with siRNA resistant to proteinase K”. The “hemolytic activity of free peptide (in words)” value in data set [5] is reported as “significantly higher”. Also, in data set [5] (peptide 0.75 uM, buffer pH 5.5-7.5), the “pH dependent hemolytic activity (in words)” value is given as “markedly hemolytic already at pH 7.5”.

Take `CCCCCCCCCCCCCCCCCC(=O)N[C@@H](C)C(=O)NCC(=O)N[C@@H](Cc1ccc(O)cc1)C(=O)N[C@@H](CC(C)C)C(=O)N[C@@H](CC(C)C)C(=O)NCC(=O)N[C@@H](CCCCNC(=O)[C@H](CCCCNC(=O)[C@H](CCCCNC(=O)CCC(=O)NCCN(C)CCNc1ccnc2cc(C(F)(F)F)ccc12)NC(=O)CCC(=O)NCCN(C)CCNc1ccnc2cc(C(F)(F)F)ccc12)NC(=O)[C@H](CCCCNC(=O)CCC(=O)NCCN(C)CCNc1ccnc2cc(C(F)(F)F)ccc12)NC(=O)CCC(=O)NCCN(C)CCNc1ccnc2cc(C(F)(F)F)ccc12)C(=O)N[C@H](C(=O)N[C@@H](CC(N)=O)C(=O)N[C@@H](CC(C)C)C(=O)N[C@@H](CCCCN)C(=O)N[C@@H](C)C(=O)N[C@@H](CC(C)C)C(=O)N[C@@H](C)C(=O)N[C@@H](C)C(=O)N[C@@H](CC(C)C)C(=O)N[C@@H](C)C(=O)N[C@@H](CCCCN)C(=O)N[C@@H](CCCCN)C(=O)N[C@H](C(=O)N[C@@H](CC(C)C)C(N)=O)[C@@H](C)CC)[C@@H](C)CC` [PF6, reference compound]: the “luciferase downregulation efficiency (in words)” value in data set [1] (CPP/siRNA complexes, comparison between CPPs) was “most efficient peptides even at low MRs”. For the same compound, the “Red (%) (reduction, based on remaining luminescence on U87 cells post-treatment)” value in data set [1] (CPP/siRNA complexes) is recorded as 84%. The “downregulation of reporter gene on cells in buffer, pH dependence” value in data set [1] (HEPES buffer pH 6.0 vs 7.4, siRNA 10 nM) was “pH-dependent”. Besides, in data set [1] (complexes formed at MR30, average, read-out: IC50 (siRNA concentration), luciferase downregulation), the IC50 stood at 10.4 nM. The “cells with downregulated reporter gene (GFP signal below threshold), FACS” value in data set [2] (CHO-GFP, CPP/siGFP complexes) is listed as “approximately 70%”. Besides, in data set [2] (live cells treated with CPP/siGFP complexes), the “GFP signal in confocal images” value is “detected GFP signal was the lowest”. Moreover, the “downregulation of GFP (average, cell lysate fluorescence)” value in data set [2] is recorded as “highest”. Also, the “stability of complexes to heparin displacement (in words)” value in data set [3] is “only about a half of that in NF55/siRNA complexes”. Moreover, in data set [4], the “stability of complexes to proteinase K (in words)” value is given as “significantly lower stability to longer exposure to enzyme”. Also, the “hemolytic activity of free peptide (in words)” value in data set [5] was “most hemolytic”.

With “HYHHGO^eILLKALKALAKAIL [NF725, group H3; C18 saturated fatty acid on N-terminus; C-terminally amidated]”, the “Red (%) (reduction, based on remaining luminescence on U87 cells post-treatment)” value in data set [1] (CPP/siRNA complexes) came to 60%. Also, in data set [6], the “pDNA delivery / gene expression in vitro (in words)” value is listed as “promising vectors for pDNA transfection”. In addition, the “reporter gene expression in organs after i.v. CPP/pDNA (in words)” value in data set [7] is given as “high gene expression level in liver; also recorded: higher at CR4 than CR2”.

These data come from US12385042B2, “Cell-penetrating peptides” (VECTIOPEP OÜ, priority 2019, dated 2025).
